Results reported in patent US20120245346A1, “MALEIC ACID SALT AND CRYSTAL THEREOF” (Kyorin Pharmaceutical Co., Ltd., priority 2009, published 2012).
Where a name gives a salt, the structure may show the parent alone. Read-outs that look alike come from different tables or passages of the source.

Legend:
Assay type in all cases: physicochemical
[1] = Solubility in water (Test Example 1, Stage 1)
Procedure: (§1) As the monomaleic acid salt, the sample in Example 5 was used in Stage 1 of Table 2, and the sample in Example 1 was used in Stage 2. The other samples in respective Stages of Table 2 were prepared in accordance with Patent Literature 1. The solubility and the stability as a drug substance of the respective samples were examined in Stage 1, and the crystallinity, phenomenon of crystal polymorphism, and presence or absence of adhesion water were examined in Stage 2.
Solubility: When the ratio of dissolved sample to water is 10 mg/mL or more, the solubility of the sample is represented as circle (◯), and when the ratio is 10 mg/mL or less, the solubility is represented as cross mark (x).

[2] = Stability as a drug substance, 2-week storage, HPLC assay of mainly degradation product (Test Example 1, Stage 1); conditions: 2-week storage at 25° C./75% RT (closed system), increase in HPLC area % of mainly degradation product
Procedure: as §1
Stability as a drug substance: The sample after 2-week storage at 25° C./75% RT (closed system) was assayed by high-performance liquid chromatography (HPLC) under conditions described below. When the increase in area percentage (%) of a mainly degradation product is less than +0.5%, the stability of drug substances is represented as circle (◯), and when the increase is +0.5% or more, the stability of drug substances is represented as cross mark (x). In Test Example 2, the mainly degradation product was assayed by HPLC under the same conditions.
Conditions of HPLC in test of stability as a drug substance
column: Atlantis dC18, 2.1 mm φ×15 cm, 3 μm Measurement wavelength: 254 nm column temperature: 40° C. Flow rate: 0.2 mL/min Mobile phase A: 0.05% formic acid aqueous solution Mobile phase B: 0.05% formic acid-acetonitrile solution Transfer of mobile phases: The mixed ratio of mobile phase A and mobile phase B is changed as shown in Table 1 to control the concentration gradient.

[3] = Adhesion water by thermal analysis TG-DTA (Test Example 1, Stage 2); conditions: for ADHESION WATER: decrease (%) in TG-DTA chart at about 50° C., Stage 2; for adhesion water (in words): TG-DTA decrease (%) at about 50° C.
Procedure: (§2) A sample (5 mg) was placed in a sample pan (a container made of aluminum), and thermal analysis TG-DTA of the sample was performed using EXSTAR 6000 thermal analyzer manufactured by Seiko Instruments Inc.
as §1
Adhesion water: When decrease (%) in the chart obtained from the thermal analysis TG-DTA is seen at about 50° C., the adhesion water is represented as “Presence,” and when the decrease (%) is not seen, the adhesion water is represented as “None.”

[4] = Crystallinity by powder x-ray diffraction (Test Example 1, Stage 2); conditions: for CRYSTALLINITY: powder x-ray diffraction peak intensity, Stage 2; for crystallinity (in words): powder x-ray diffraction
Procedure: (§3) A sample (about 100 mg) was (lightly) pulverized in an agate mortar, and a packed section of a sample flat holder made of glass was filled with the pulverized sample. Powder x-ray diffraction of the sample was then performed using RINT2200 powder x-ray diffractometer (Rigaku Corporation).
as §1
Crystallinity: In powder x-ray diffraction, when a peak intensity is 5000 cps or more, the crystallinity is represented as “High,” and when it is 5000 cps or less, the crystallinity is represented as “Low.”

[5] = Development of crystal polymorphism by TG-DTA and powder x-ray diffraction (Test Example 1, Stage 2); conditions: TG-DTA versus powder x-ray diffraction
Procedure: as §2, §3, §1
Development of crystal polymorphism: For crystals of the same salt, when the crystal structure shown by the thermal analysis TG-DTA is different from that shown by the powder x-ray diffraction, the development of crystal polymorphism is represented as “Presence”. On the other hand, when the thermal analysis TG-DTA and the powder x-ray diffraction show the same crystal structure, the development of crystal polymorphism is represented as “None.”

[6] = ratio of dissolved sample to water, Stage 1

In the case of `CCc1cc(OC)cc2nc(-c3cccnc3N3CC[C@H](N(C)C)C3)oc(=O)c12` [DIHYDROCHLORIDE, 2-[2-((S)-3-dimethylaminopyrrolidin-1-yl)pyridin-3-yl]-5-ethyl-7-methoxy-4H-benz[d][1,3]oxazin-4-one], the SOLUBILITY [1, 6] is reported as “∘”, the solubility in water ([1]; water) is reported as at least 10000 µg/mL and the “STABILITY AS DRUG SUBSTANCE” value [2] is reported as “x (when the increase is +0.5% or more)”. For the same molecule, the “ADHESION WATER” value [3] was “PRESENCE”.
In the case of `CCc1cc(OC)cc2nc(-c3cccnc3N3CC[C@H](N(C)C)C3)oc(=O)c12` [FREE FORM, 2-[2-((S)-3-dimethylaminopyrrolidin-1-yl)pyridin-3-yl]-5-ethyl-7-methoxy-4H-benz[d][1,3]oxazin-4-one], the SOLUBILITY [1, 6] is reported as “x (when the ratio is 10 mg/mL or less)”, the solubility in water ([1]; water, listed as free base) is reported as at most 2000 µg/mL and the “STABILITY AS DRUG SUBSTANCE” value [2] is reported as “∘”. The CRYSTALLINITY [4] was “LOW” and the “PHENOMENON OF CRYSTAL POLYMORPHISM” value [5] was “AMORPHOUS”.
With `CCc1cc(OC)cc2nc(-c3cccnc3N3CC[C@H](N(C)C)C3)oc(=O)c12.Cl.O` [MONOHYDROCHLORIDE, 2-[2-((S)-3-dimethylaminopyrrolidin-1-yl)pyridin-3-yl]-5-ethyl-7-methoxy-4H-benz[d][1,3]oxazin-4-one hydrochloride monohydrate] the SOLUBILITY [1, 6] was “∘”, the SOLUBILITY ([1]; water, read-out: solubility in water) was at least 10000 µg/mL and the “STABILITY AS DRUG SUBSTANCE” value [2] was “∘”. The “crystallinity (in words)” value [4] was “low crystallinity and high amorphous content”, the CRYSTALLINITY [4] was “LOW” and the “PHENOMENON OF CRYSTAL POLYMORPHISM” value [5] was “PRESENCE”. For the same molecule, the “adhesion water (in words)” value [3] was “adhesion water was present” and the “ADHESION WATER” value [3] was “PRESENCE”.
In the case of `CCc1cc(OC)cc2nc(-c3cccnc3N3CC[C@H](N(C)C)C3)oc(=O)c12` [MONOMALEIC ACID, 2-[2-((S)-3-dimethylaminopyrrolidin-1-yl)pyridin-3-yl]-5-ethyl-7-methoxy-4H-benz[d][1,3]oxazin-4-one monomaleate], the SOLUBILITY ([1]; ratio of dissolved sample to water, Stage 1, monomaleate) is reported as “∘”, the solubility in water ([1]; water, listed as monomaleic acid salt, monomaleate) is reported as at least 10000 µg/mL and the “STABILITY AS DRUG SUBSTANCE” value ([2]; monomaleate) is reported as “∘”. For the same molecule, the “crystallinity (in words)” value [4] was “high crystallinity”, the CRYSTALLINITY ([4]; monomaleate) was “HIGH” and the “PHENOMENON OF CRYSTAL POLYMORPHISM” value ([5]; monomaleate) was “PRESENCE”. For the same molecule, the “adhesion water (in words)” value [3] was “adhesion water was not present” and the “ADHESION WATER” value ([3]; monomaleate) was “NONE”.
In the case of `CCc1cc(OC)cc2nc(-c3cccnc3N3CC[C@H](N(C)C)C3)oc(=O)c12` [½D-TARTARIC ACID, 2-[2-((S)-3-dimethylaminopyrrolidin-1-yl)pyridin-3-yl]-5-ethyl-7-methoxy-4H-benz[d][1,3]oxazin-4-one], the SOLUBILITY [1, 6] is reported as “∘”, the solubility in water ([1]; water, listed as 1/2D-tartaric acid salt) is reported as at least 10000 µg/mL and the “STABILITY AS DRUG SUBSTANCE” value [2] is reported as “x (when the increase is +0.5% or more)”. For the same molecule, the “ADHESION WATER” value [3] was “PRESENCE”.
In the case of `CCc1cc(OC)cc2nc(-c3cccnc3N3CC[C@H](N(C)C)C3)oc(=O)c12` [¾L-TARTARIC ACID, 2-[2-((S)-3-dimethylaminopyrrolidin-1-yl)pyridin-3-yl]-5-ethyl-7-methoxy-4H-benz[d][1,3]oxazin-4-one], the SOLUBILITY ([1]; water, ratio of dissolved sample to water, Stage 1, read-out: SOLUBILITY) is reported as at most 10000 µg/mL, the “STABILITY AS DRUG SUBSTANCE” value [2] is reported as “∘” and the “ADHESION WATER” value [3] is reported as “PRESENCE”.
